Here are results for three compounds from ChEMBL document CHEMBL1126525, “Synthesis and DNA cleaving properties of hybrid molecules containing propargylic sulfones and minor groove binding lexitropsins” (Bioorg Med Chem Lett, 1993).

For the assay, the system named is Nucleic Acid. The assay can be described thus: Compound was evaluated for its binding affinity constant to calf thymus DNA. In kind it is nucleic-acid assay. To be noted: Bos taurus.
`COC(=O)c1cc(NC(=O)c2cc(NC(=O)c3cc(NC(=O)c4cccc5c(S(=O)(=O)CC#CCO)cccc45)cn3C)cn2C)cn1C` returned a Binding affinity of 720000 M⁻¹. With `O=S(=O)(CC#CCO)c1cccc2ccccc12` the figure was 46000 M⁻¹. In the case of `COC(=O)c1cc(NC(=O)c2cc(NC(=O)c3cc(NC(=O)c4cc(S(=O)(=O)CC#CCO)cc5ccccc45)cn3C)cn2C)cn1C`, the Binding affinity turned out to be 89000 M⁻¹.
